Measurements taken from PMC8978639, “Fine-tuning of the pharmacological potential of novel thiazolium ionic liquids by anion alteration” (RSC Advances, 2021).
In brackets after ≈: the same amount, converted by molar mass. Where two headings read alike, the source gives them in different places.

Columns and labels:
S. aureus (ATCC-25923) = test: Minimal inhibitory/bactericidal concentrations (MIC/MBC); assay type: cell-based, Staphylococcus aureus; conditions: for MBC ± SD / MIC ± SD: S. aureus
Text: (§1) The antimicrobial activity of newly synthesized benzyl thiazolium ionic liquids (BTILs) was investigated in vitro against the most common foodborne bacterial strains (Staphylococcus aureus (S. aureus, ATCC-25923) and Escherichia coli (E. coli, ATCC-25922)) in comparison with clinical drugs (Gentamycin (Gm) and Tetracyclin (TC)). These tests have been conducted in accordance with the standard antimicrobial assessment protocols we've described and used in our previous studies.[29] The diameters of the zone of inhibition (ZOI, mm), values of minimum inhibitory concentration (MIC), and minimal bactericidal concentration (MBC) were used as markers for the antimicrobial efficacy of the tested compounds.
(§2) As evident in Table 2, the results of MIC and MBC are in general accordance with the Well diffusion assay. […] In the literature, quantitative information on the antimicrobial activity of short-chained and benzyl-functionalized ionic liquids is scarce. In this context, few studies have reported the antibacterial impact of 1-alkyl-3-methylimidazolium ionic liquids, bound to different anions, upon various pathogenic bacteria.

E. coli (ATCC-25922) = test: as above; assay type: cell-based, Escherichia coli
Text: as §1, §2

E.coli = system: E.coli; set-up: method as in doi:10.1039/b921805j, doi:10.1016/j.molliq.2016.05.093; conditions: cited from earlier work
S.aureus = system: S.aureus; set-up: method as in doi:10.1039/b921805j, doi:10.1016/j.molliq.2016.05.093; conditions: cited from earlier work
[1] = system: Staphylococcus aureus (S. aureus, ATCC-25923); test: Well diffusion assay (zone of inhibition); assay type: cell-based
Text: as §1, with “These tests have been conducted in accordance with the standard antimicrobial assessment protocols we've described and used in our previous studies.[29]” left out
The antibacterial activities of novel TILs against S. aureus and E. coli were screened in vitro, as compared to clinical antibiotics (Gentamycin (Gm) and Tetracyclin (TC)). […] Gram-negative bacteria' outer membranes, which are composed of impermeable lipopolysaccharides (LPS), phospholipids, and lipoproteins, may act as a barrier to the entry of antimicrobial molecules, whereas Gram-positive bacteria's outer membranes have no LPS layer and are composed only of a thick peptidoglycan layer which can easily absorb and transfer such antimicrobials to the inner cell membrane.[43]

[2] = system: ovarian carcinoma cell lines (SKOV-3); test: MTT cytotoxicity assay; assay type: cell-based, human; conditions: for IC50: SKOV-3, MTT, 24 h of treatment; for Selectivity index (SI): cancer cells (SKOV-3) over normal ones (HSF)
Protocol: (§3) The antiproliferative activity of novel BTILs was tested in vitro against two cell lines: ovarian cancer (SKOV-3) and normal human skin fibroblast cells (HSF) using the standard MTT cytotoxicity assay described in our previous work.[30] The cell viability ratios, half-maximal inhibitory concentration (IC50), and selectivity index (SI) were used as performance indices for the cytotoxicity of tested compounds. The clinical anticancer drug (cisplatin, CDDP) was used as a positive control.
The use of ionic liquids (ILs) in pharmaceutical and medicinal chemistry has recently piqued the interest of researchers across the globe.[12] In this scenario, several studies have documented the anticancer potential of ILs.[20,48] In order to find potential safe anticancer candidates, the cytotoxicity of imidazolium, ammonium, pyridinium, and phosphonium ILs was tested against over 60 human cancer cell lines.[12,49] […] Besides, the cytotoxicity of ILs is strongly correlated to the counter anion. For instance, the cytotoxicity of 1-alkyl-3-methylimidazolium cation [RMIM]^+ follows the following trend; [RMIM][Tf2N] ≫ [RMIM][BF4] > [RMIM][Cl].[50] To our knowledge, no previous studies have been reported so far for using thiazolium ILs for anticancer purposes. These facts have inspired us to design and study the antiproliferative activity of new thiazolium ILs tethering different anions (BF4 (3a–c) and Tf2N (4a–c)) against ovarian carcinoma cell lines (SKOV-3) and normal human skin fibroblast cells (HSF). The 3-(4,5-dimethylthiazol-2-yl)-2,5-diphenyltetrazolium bromide (MTT) assay was used to carry out this study, with cisplatin (CDDP) serving as a positive control. Initially, the impacts of serial concentrations (2.5–100 μM) of the thiazolium ILs on the viability of the SKOV-3 cell lines were assessed as compared to CDDP. […] In general, TILs bound to Tf2N anion (4a–c) inhibited the proliferation of SKOV-3 cells more effectively than the corresponding tetrafluoroborate analogues (3a–c). For instance, [^iPBzTh][Tf2N] (4b) is the most cytotoxic one and can reduce the SKOV-3 cellular viability to a minimum value (10.5 ± 1.7%, Fig. 5A) at its treatment dosage of 100 μM. Conversely, [MBzTh][BF4]
At definite time intervals, the SKOV-3 cell viability has been measured.

[3] = system: normal human skin fibroblast cells (HSF); test: MTT cytotoxicity assay; assay type: cell-based; conditions: HSF, MTT, 24 h of treatment
Protocol: as §3
(§4) To explore the selectivity of the newly synthesized TILs for attacking cancer cells over normal ones, the effects of serial concentrations (0–200 μM) of these TILs on the proliferation of normal human skin fibroblast (HSF) cells were also studied for a period of 24 h. […] For example, treatment of both cell lines with 100 μM of [^iPBzTh][Tf2N] […] [MBzTh][BF4]

[4] = Viscosity by capillary viscometer; assay type: physicochemical; conditions: at 50 °C and concentrations 0.5 mg mL^−1, capillary viscometer
Text: Also, the viscosity of new benzyl thiazolium ionic liquids depends on the intrinsic structural features of the cation and anion. […] This behavior can be explained based on the fact that the extremely hydrophobic Tf2N^− anion, enriched with fluorine electrons, exerts higher ion–ion interactions with hydrophobic tert-butylbenzyl-methylthiazolium cation, resulting in an increase in viscosity.[35]

[5] = Thermal stability by TG/DTG; assay type: physicochemical; conditions: taken from DTG curves
Protocol: The thermogravimetric (TG) curves of the room temperature thiazolium ionic liquids (RTTILs) (3a, 4a–c) (Fig. 1A) were employed for the investigation of their thermal stabilities. It is evident that they are thermally stable up to 270 °C and then undergo a sharp degradation phase in the temperature range of 270–350 °C. […] The first main decomposition phase (∼81% weight loss) starts at 323 °C, followed by a modest decomposition stage between 496 and 618 °C. […] The first thermal degradation step begins at 298 °C (∼52% weight loss) and is followed by two smaller degradation steps at 353 and 418 °C, respectively.

MTT cytotoxicity assay = assay type: cell-based, human; conditions: human, normal human skin fibroblast (HSF) cells; 200 μM, 24 h
Protocol: as §3, §4

Molecule	MBC ± SD (S. aureus (ATCC-25923))	MIC ± SD (S. aureus (ATCC-25923))	MBC ± SD (E. coli (ATCC-25922))	MIC ± SD (E. coli (ATCC-25922))	Zone of inhibition (ZOI) [1]	IC50 [2]	Selectivity index (SI) [2]	IC50 [3]	other results
Cc1csc[n+]1Cc1ccc(C(C)(C)C)cc1.[Cl-] [2c, 3-(4-(tert-Butyl)benzyl)-4-methylthiazol-3-ium chloride]	3.75 ± 0.14 mM	3.75 ± 0.19 mM	6.25 ± 0.29 mM	6.25 ± 0.27 mM					
CCCCCCn1cc[n+](C)c1.O=S(=O)([N-]S(=O)(=O)C(F)(F)F)C(F)(F)F [1-hexyl-3-methylimidazolium bis((trifluoromethyl)sulfonyl)amide]									MBC (E.coli): 24.59 mM; MIC (E.coli): 24.59 mM; MBC (S.aureus): 9.13 mM; MIC (S.aureus): 9.13 mM
Cc1ccc(C[n+]2cscc2C)cc1.[Cl-] [2a, 3-(4-Methylbenzyl)-4-methylthiazol-3-ium chloride]	4.25 ± 0.31 mM	4.05 ± 0.29 mM	12.25 ± 0.36 mM	6.75 ± 0.35 mM					MBC ± SD (S. aureus (ATCC-25923); listed as [MBzTh][Cl]): 4.25 mM; MIC ± SD (S. aureus (ATCC-25923); listed as [MBzTh][Cl]): 4.05 mM; MBC ± SD (E. coli (ATCC-25922); listed as [MBzTh][Cl]): 12.25 mM; MIC ± SD (E. coli (ATCC-25922); listed as [MBzTh][Cl]): 6.75 mM
Gentamycin [reference compound]				6.85 ± 0.63 mM					
Cc1csc[n+]1Cc1ccc(C(C)C)cc1.F[B-](F)(F)F [3b, 3-(4-Isopropylbenzyl)-4-methylthiazol-3-ium tetrafluoroborate]	2.56 ± 0.15 mM	2.56 ± 0.13 mM	6.25 ± 0.23 mM	5.25 ± 0.29 mM	41.86 mm	35.7 ± 1.03 µM	4.26	152 ± 9.15 µM	
CN(C)[C@@H]1C(O)=C(C(N)=O)C(=O)[C@@]2(O)C(O)=C3C(=O)c4c(O)cccc4[C@@](C)(O)[C@H]3C[C@@H]12 [Tetracycline, reference compound]									MIC (S. aureus (ATCC-25923); Staphylococcus aureus, ATCC25923, S. aureus): 7.2 ± 0.66 mM (≈ 3200 µg/mL)
Cc1csc[n+]1Cc1ccc(C(C)(C)C)cc1.F[B-](F)(F)F [3c, 3-(4-(tert-Butyl)benzyl)-4-methylthiazol-3-ium tetrafluoroborate]	3.12 ± 0.14 mM	3.12 ± 0.19 mM	6.50 ± 0.39 mM	6.50 ± 0.39 mM	39.02 mm	51.1 ± 2.33 µM	3.76	191 ± 9.85 µM	
Cc1ccc(C[n+]2cscc2C)cc1.F[B-](F)(F)F [3a, 3-(4-Methylbenzyl)-4-methylthiazol-3-ium tetrafluoroborate]	3.25 ± 0.21 mM	3.25 ± 0.19 mM	5.75 ± 0.45 mM	5.75 ± 0.41 mM	39.21 mm	78 ± 1.35 µM	2.28		η (viscosity) [4]: 439.25 ± 5.3 cP; T dec (decomposition temperature) [5]: 340.3 °C; Reduction in SKOV-3 viability ([2]; 100 μM, 24 h): 54.6%; viability at 24 h, 200 µM (MTT cytotoxicity assay): 45.5 ± 4.1%; IC50 ([3]; Homo sapiens, Skin fibroblast, 24 h): 178 ± 8.79 µM
[NH2][Pt]([NH2])([Cl])[Cl] [CDDP, cisplatin, reference compound]						79.5 ± 1.18 µM	0.73	58.3 ± 6.67 µM	SKOV-3 cell viability ([2]; IC50 dose, after 72 h): 10.2 ± 2.7%
Cc1csc[n+]1Cc1ccc(C(C)C)cc1.[Cl-] [2b, 3-(4-Isopropylbenzyl)-4-methylthiazol-3-ium chloride]	2.35 ± 0.28 mM	2.35 ± 0.27 mM	5.25 ± 0.29 mM	5.25 ± 0.31 mM	32.13 mm				
